In patent US20260015363A1, “SUBSTITUTED PYRIMIDINE-FUSED RING INHIBITOR, METHOD FOR PREPARING SAME, AND USE THEREOF” (Suzhou Zelgen Biopharmaceuticals Co., Ltd., priority 2022, published 2026) one finds IC50 data, which are given here for 2 compounds.

What is called IC50 is the point on the concentration scale where inhibition reaches its midpoint. Higher therefore signals lower potency.

One assay relates to H727 (G12V). Description: KRAS mutant cell proliferation inhibition assay (CellTiter-Glo 3D), H727. It counts as cell-based, human. To be noted: Homo sapiens, NCI-H727, 168 h, H727 (G12V) cells, 7 days. On the procedure: (§1) Positive control: MRTX1133
(§2) • (a) The cells were thawed in T75 cell culture flasks: • (b) When 80%-90% cell confluence was achieved, the cells were passaged.
(§3) The diluted test compound was added to a 384-well cell culture plate using a nanoliter pipetting system, and replicate wells were set. An equal volume of medium was added to the positive control group; an equal volume of DMSO was added to the negative control group. The plate was centrifuged at 1000 rpm at room temperature for 1 min.
(§4) The cells were seeded into a) 384-well culture plate. An equal volume of cells was added to the negative control group, and only an equal volume of medium was added to the positive control group. The plate was centrifuged at 1000 rpm at room temperature for 1 min. The final DMSO concentration in the final compound was 0.5%. The plate was incubated in a thermostatic incubator at 37° C. with 5% CO2 for 7 days.
(§5) CellTiter-Glo® 3D was added to b) 384-well cell culture plate at 20 μL/well. The plate was shaken at 320 rpm in the dark for 20 min, and incubated at room temperature in the dark for 2 h. The luminescence values were read using an Envision multi-mode microplate reader.
(§6) The inhibition rates (IRs) of the test compounds were calculated according to the following formula: IR (%)=(1−(RLU compound−RLU blank control)/(RLU vehicle control−RLU blank control))×100%. The inhibition rates of the compounds at different concentrations were calculated in Excel, and then inhibition curves were plotted and relevant parameters including minimum inhibition rate, maximum inhibition rate and IC50 were calculated using GraphPad Prism software.
In general terms: ATP-based viability assays read luminescence as a measure of living cells.

For a further assay, the system named is PSN-1 (G12R). The assay is described as follows: KRAS mutant cell proliferation inhibition assay (CellTiter-Glo 3D), PSN-1. The note with it: Homo sapiens, PSN1, 168 h, PSN-1 (G12R) cells, 7 days. The format is cell-based. The procedure:
as §1, §2, §3, §4, §5, §6

The subject of another assay is SW480 (G12V). The assay is described as follows: KRAS mutant cell proliferation inhibition assay (CellTiter-Glo 3D), SW480. To be noted: Homo sapiens, 168 h, SW480 (G12V) cells, 7 days. It counts as cell-based. The procedure:
as §1, §2, §3, §4, §5, §6

A further assay concerns MNK1 (WT). Description: Cell proliferation inhibition assay (CellTiter-Glo 3D), MNK1. It counts as cell-based, human. To be noted: Homo sapiens, 168 h, MNK1 (WT) cells, 7 days. The procedure: as §1, §2, §3, §4, §5, §6
In the next assay the test system is AsPC-1 (G12D). Description: KRAS mutant cell proliferation inhibition assay (CellTiter-Glo 3D), AsPC-1. The format is cell-based, human. The note with it: Homo sapiens, ASPC1, 168 h, AsPC-1 (G12D) cells, 7 days.

For `CCc1c(F)ccc2cc(O)cc(-c3ncc4c(N5CCCC6(CCO6)C5)nc(OC[C@@]56CCCN5C[C@@]5(CC5(F)F)C6)nc4c3F)c12` (stereo partly drawn) [Example A-16, 4-(2-(((1S,7a'S)-2,2-Difluorodihydro-1′H,3′H-spiro[cyclopropane-1,2′-pyrrolizin]-7a′ (5′H)-yl)methoxy)-8-fluoro-4-(1-oxa-6-azaspiro[3.5]nonan-6-yl)pyrido[4,3-d]pyrimidin-7-yl)-5-ethyl-6-fluoronaphthalen-2-ol], the concentration for half-maximal inhibition (IC50) came to 45.1 nM in the assay with H727 (G12V); 1000 nM in the assay on PSN-1 (G12R); 68.2 nM in the assay on SW480 (G12V); 22.7 nM in the assay with MNK1 (WT); 11.4 nM with AsPC-1 (G12D).
For the compound `C#Cc1c(F)ccc2cc(O)cc(-c3ncc4c(N5CC6CCC(C5)N6)nc(OC[C@@]56CCCN5C[C@H](F)C6)nc4c3F)c12` [MRTX1133, reference compound], the IC50 was 2270 nM in the assay on H727 (G12V); over 10000 nM with PSN-1 (G12R); 432 nM in the assay with SW480 (G12V); 319 nM in the assay with MNK1 (WT); 10.1 nM in the assay on AsPC-1 (G12D).
